Tested on: SMN2-on minigene
Experiment: SMN2-on cassette Firefly luciferase reporter assay in transfected HEK293 cells
Type: cell-based, Human
Details: HEK293 cells, varying doses
Protocol: Cell culture, transfection, and LMI070/RG7800 treatment. Human embryonic kidney (HEK293) cells (obtained from CHOP Research Vector Core stock) were maintained in DMEM media containing 10% Fetal Bovine Serum (FBS), 1% L-Glutamine and 1% penicillin/streptomycin at 37° C. with 5% CO2. Cells were cultured in 24 well plates and transfected at 80-90% confluence using Lipofectamine 2000 transfection reagent, according to the manufacturer’s protocol. For all experiments, 4 hours after plasmid transfection, cells were treated with LMI070 (MedChemExpress, HY-19620, suspended in DMSO) or RG7800 (MedChemExpress, HY-101792A, suspended in H2O) at the indicated concentrations. Cells were tested for mycoplasma by Research Vector Core. None of the cells used in the study were listed in ICLAC database of commonly misidentified cell lines.
In vitro luciferase assays. HEK293 cells were cultured in DMEM (10% FBS (v/v), 1% Pen/ Strep (v/v), and 1% L-glutamine (v/v) in a 24-well plate. At 70%-80% confluence, cells were co-transfected with the Xon.Firefly luciferase cassettes (0.3 µg/well) and a SV40p-Renilla luciferase cassette as transfection control (0.02 µg/well). Four hours after transfections cells were treated either with LMI070 or RG7800 at indicated concentrations. At 24 h after transfection, cells were rinsed with ice-cold PBS and Renilla and Firefly luciferase activities were assessed using the Dual-Luciferase Reporter Assay System (Promega) according to the manufacturer’s instructions. Luminescent readouts were obtained with a Monolight 3010 luminometer (Pharmigen). Relative light units (RLUs) were calculated as the quotient of […] RLUs and results expressed relative to mock treated control cells.
For this, SMN2-on cassettes were generated to provide drug-induced reporter gene expression. HEK293 cells were transfected with the SMN2-on expression cassettes and luciferase activity evaluated in response to varying doses of LMI070 or RG7800. […]

SMILES: CCc1nc(C)cn2nc(-c3cc(=O)n4cc(C5CCN(C)CC5)cc(C)c4n3)cc12 [RG7800]
- luciferase activity from the SMN2-on minigene: induced luciferase activity
